Results published in patent publication US20240197820A1, “Bacteriocin for new application” (priority 2021, published 2024).
“Also recorded” adds a separate entry of the source. No end group written: not given here.

Assays:
S. aureus ATCC 6538 [1] = assay: Antimicrobial activity test on inoculated M17 agar plates (inhibition halo); type: cell-based, Staphylococcus aureus; details: 1 mg/ml, overnight incubation
Method: (§1) Bacterial strains were grown overnight in liquid culture on rotary shakers or on agar plates using M17 media supplemented with 0.5% glucose. S. aureus ATCC 6538 and S. epidermidis ATCC 12228 liquid cultures and agar plates were grown anaerobically at 37° C. Culture volume utilized in MIC assays was 200 μl.
(§2) Antimicrobial activity of bacteriocin peptides was tested on M17 agar plates in Examples 1 and 3.
(§3) In Example 1, 2 μl of cerein 7B peptide (SEQ ID NO: 2) aqueous solutions at a concentration of 1 mg/ml were deposited on inoculated M17 agar plates of S. aureus ATCC 6538 and S. epidermidis ATCC 12228. In the case of S. epidermidis ATCC 12228, an equivalent amount of aureocin A53 aqueous solution (1 mg/ml concentration) was used as positive control.
In Example 3, 5 μl of bacteriocin peptides (SEQ ID NO: 2, 4-51) aqueous solutions at a concentration of 1 mg/ml were deposited on inoculated M17 agar plates of S. aureus ATCC 6538. After overnight incubation, the presence of an inhibition halo was considered as a positive result of antimicrobial activity.

S. aureus ATCC 6538 [2] = assay: MIC assay in liquid culture (endpoint OD600); type: cell-based, Staphylococcus aureus; details: liquid culture 200 μl, M17 + 0.5% glucose, 37° C., overnight, 2-fold dilutions from 250 μg/ml
Method: as §1
(§4) Determination of MIC values of a cerein 7B peptide (SEQ ID NO: 2) was performed in liquid cultures of S. aureus ATCC 6538 and S. epidermidis ATCC 12228. Growth was assessed by measuring endpoint OD600 values in a Spectramax i3 (Molecular Devices, CA, USA). Minimum inhibitory concentration (MIC) was defined as the lowest concentration which inhibited 50% of the growth of cultures as compared to reference cultures not exposed to the peptide. Concentration of the peptide was 250 μg/ml in well 11, diluted 2-fold per subsequent well as shown in Table 3 (concentrations rounded to the second decimal): […]

[3] = tested on: S. epidermidis ATCC 12228; assay: MIC assay in liquid culture (endpoint OD600); type: cell-based, Staphylococcus epidermidis; details: tested concentrations 0.24 to 250 μg/ml
Method: as §1, §4

[4] = tested on: S. epidermidis ATCC 12228; assay: Antimicrobial activity test on inoculated M17 agar plates (inhibition halo); type: cell-based, Staphylococcus epidermidis; details: 2 μl of aqueous solution, 1 mg/ml, overnight incubation
Method: as §1, §2, §3

[5] = tested on: Lactococcus lactis LMG IL 1403; details: cited from earlier work

Row | Substance | antimicrobial activity of mutants (inhibition halo) (S. aureus ATCC 6538 [1]; 5 μl of aqueous solution, M17 agar plate, peptides synthesized in vitro (PURExpress)) | MIC (lowest concentration which inhibited 50% of the growth of cultures) (S. aureus ATCC 6538 [2]) | inhibition halo (antimicrobial activity on agar plate) (S. aureus ATCC 6538 [1]; 2 μl of aqueous solution, chemically synthesized peptide) | growth inhibition in MIC assay [3] | inhibition halo (antimicrobial activity on agar plate) [4] | activity against Lactococcus lactis LMG IL 1403 [5]
1 | GWWNSWGKCVAGTIGGAGTGGLGGAAAGSAVPVIGTGIGGAIGGVSGGLTGAATFCW (mutant 48 (E2)) [SEQ ID NO: 51] | did not compromise its antimicrobial activity |  |  |  |  | 
2 | GWWNSWGKCVAGTIGGAGTGGLGGAAAGSAVPVIGTGIGGAIGGVSGGLTGAATFC (cysteines drawn unpaired) [cerein 7B] |  | 15.63 µg/mL | An inhibition halo was visible | No growth inhibition was observed | no inhibition halo was visible; also recorded: no inhibition halo was present | demonstrated its activity
3 | aureocin A53 [reference compound] |  |  |  |  | an inhibition halo was present | 
